“Also recorded” adds a separate entry of the source. Peptide text beside a SMILES is read from it.
Assay: Phase I dose-escalation safety: MTD, DLT, adverse events (NCI CTCAE 3.0)
Type: in vivo, human
Method: An open-label dose-escalation study was conducted at three centers after review and approval by each centers’ Institutional Review Board. Patients’ written informed consent was provided prior to study enrollment. The primary objectives of the study were to determine the maximum-tolerated dose (MTD) of EP-100 by intravenous (IV) infusion and to describe any dose limiting toxicities (DLT), which would inform the recommended phase 2 dose (RP2D) of EP-100 for future phase 2 protocols. Secondary objectives included: (a) to profile the PK and PD of EP-100, (b) to assess any drug immunogenicity by antidrug antibodies (ADA) which may react with endogenous LHRH, (c) to monitor biomarkers of pharmacologic activity of EP-100 and (d) to assess antitumor activity of EP-100 by radiographic assessments.
Cohorts of three patients were enrolled in a 3 + 3 dose-escalation design. […] A conservative first-in-human starting dose of 0.6 mg/m^2 was chosen, based on the repeat-dose toxicity studies in dogs (which appeared to be the most sensitive species). The initial dose schedule of one 30 min infusion weekly was predicted from animal PK profiles. Dosing frequency and infusion time were increased in subsequent cohorts by two protocol amendments. To increase the cumulative dose-exposure to EP-100, infusions were increased to twice weekly after conducting safety assessments in the first seven cohorts (n = 21 patients, at dose levels 0.6–7.8 mg/m^2). Twice weekly infusions effectively doubled the EP-100 delivered in all patients after cohort 7. The infusion time for the twice weekly doses also was increased from 30 to 60 min beginning with one patient in cohort 8 (dose level 11.7 mg/m^2), which decreased the intensity of infusion reactions (described below).
The absence of grade 2 drug-related toxicities in lower dose cohorts allowed 100 % dose acceleration. In the event of grade 2 or higher non-DLT in one or more patients, dose was escalated by 50 %. Dose escalation was limited to 50 % for any grade 1 or 2 drug-related dermatologic reactions unlikely to be allergic reaction or histamine-release syndromes and to 25 % for any grade 3 or 4 drug-related infusion reaction. With occurrence of the first DLT, the cohort was expanded to three additional patients. If one or more of the three additional patients at that dose level experienced DLT (total of two or more patients with DLT), MTD was reached. MTD was defined as the dose level below which two out of three to six patients experienced a DLT during the first cycle or during 1 complete cycle (28 days).
All adverse events (AE) were graded and reported according to National Cancer Institute Common Terminology Criteria for Adverse Events version 3.0 (NCI CTCAE 3.0). DLT were recorded during Cycle 1 if patients had any of the following: grade 4 neutropenia lasting 5 or more days, grade 3/4 neutropenia with fever and/or infection, grade 4 thrombocytopenia or grade 3 thrombocytopenia with bleeding, grade 3 or 4 allergic reaction, grade 3 or 4 drug-related non-hematologic toxicity (not including grade 3 nausea/vomiting or diarrhea with sub-optimal prophylactic and curative treatment) or a dose delay of more than 2 weeks due to treatment-related AE or laboratory abnormalities. Any grade 3 AE not judged to be clinically significant (e.g., alopecia or drug-related fever) were not considered DLT.

[1] = selected toxicities, all cycles, N = 37

In the case of `CC(C)C[C@H](NC(=O)CNC(=O)[C@H](Cc1ccc(O)cc1)NC(=O)[C@H](CO)NC(=O)[C@H](Cc1c[nH]c2ccccc12)NC(=O)[C@H](Cc1c[nH]cn1)NC(=O)[C@@H]1CCC(=O)N1)C(=O)N[C@@H](CCCNC(=N)N)C(=O)N1CCC[C@H]1C(=O)NCC(=O)N[C@@H](CCCCN)C(=O)N[C@@H](Cc1ccccc1)C(=O)N[C@@H](C)C(=O)N[C@@H](CCCCN)C(=O)N[C@@H](Cc1ccccc1)C(=O)N[C@@H](C)C(=O)N[C@@H](CCCCN)C(=O)N[C@@H](CCCCN)C(=O)N[C@@H](Cc1ccccc1)C(=O)N[C@@H](C)C(=O)N[C@@H](CCCCN)C(=O)N[C@@H](Cc1ccccc1)C(=O)N[C@@H](C)C(=O)N[C@@H](CCCCN)C(=O)N[C@@H](CCCCN)C(=O)N[C@@H](Cc1ccccc1)C(=O)N[C@@H](C)C(=O)N[C@@H](CCCCN)C(=O)O` [EP-100] (HELM PEPTIDE1{[Glp].H.W.S.Y.G.L.R.P.G.K.F.A.K.F.A.K.K.F.A.K.F.A.K.K.F.A.K}$$$$V2.0; C-terminus assumed), the “IRDRs in the four lowest dose cohorts” value (0.6–1.7 mg/m^2 at dose concentrations of 0.01–0.03 mg/mL) is reported as “No IRDRs”, the “toxicities / AE of grade 3 or higher” value (all 37 patients, all dose levels) is reported as “No toxicities ≥grade 3; also recorded: no grade 3 or 4 AE” and the “IRDRs (infusion-related dermatologic reactions) reported” value (all dose levels) is reported as 10 of 37. For the same compound, the “SAE Disease progression, No. of patients (%)” value (dosing 1.35 mg/m^2 qw) was 1 (2.7) No. of patients (%), the “SAE Disease progression, Outcome” value (dosing 1.35 mg/m^2 qw) was “Death” and the “SAE Disease progression, Relationship to EP-100” value (dosing 1.35 mg/m^2 qw) was “Unrelated”. The “SAE Gastrointestinal hemorrhage, No. of patients (%)” value (dosing 1.35 mg/m^2 qw) was 1 (2.7) No. of patients (%), the “SAE Gastrointestinal hemorrhage, Outcome” value (dosing 1.35 mg/m^2 qw) was “Resolved” and the “SAE Gastrointestinal hemorrhage, Relationship to EP-100” value (dosing 1.35 mg/m^2 qw) was “Unlikely related”. The “SAE Peripheral edema, No. of patients (%)” value (dosing 1.35 mg/m^2 qw) was 1 (2.7) No. of patients (%), the “SAE Peripheral edema, Outcome” value (dosing 1.35 mg/m^2 qw) was “Resolved with sequelae” and the “SAE Peripheral edema, Relationship to EP-100” value (dosing 1.35 mg/m^2 qw) was “Unrelated”. For the same compound, the “SAE Pain, No. of patients (%)” value (dosing 1.7 mg/m^2 qw) was 1 (2.7) No. of patients (%), the “SAE Pain, Outcome” value (dosing 1.7 mg/m^2 qw) was “Ongoing” and the “SAE Pain, Relationship to EP-100” value (dosing 1.7 mg/m^2 qw) was “Unrelated”. For the same compound, the “SAE Chills, No. of patients (%)” value (dosing 11.7 mg/m^2 biw) was 1 (2.7) No. of patients (%), the “SAE Chills, Outcome” value (dosing 11.7 mg/m^2 biw) was “Resolved” and the “SAE Chills, Relationship to EP-100” value (dosing 11.7 mg/m^2 biw) was “Unrelated”. For the same compound, the “SAE Hydronephrosis, No. of patients (%)” value (dosing 11.7 mg/m^2 biw) was 1 (2.7) No. of patients (%), the “SAE Hydronephrosis, Outcome” value (dosing 11.7 mg/m^2 biw) was “Resolved” and the “SAE Hydronephrosis, Relationship to EP-100” value (dosing 11.7 mg/m^2 biw) was “Unrelated”. For the same compound, the “SAE Febrile neutropenia, No. of patients (%)” value (dosing 17.5 mg/m^2 biw) was 1 (2.7) No. of patients (%), the “SAE Febrile neutropenia, Outcome” value (dosing 17.5 mg/m^2 biw) was “Resolved” and the “SAE Febrile neutropenia, Relationship to EP-100” value (dosing 17.5 mg/m^2 biw) was “Unrelated”. The “SAE Ascites, No. of patients (%)” value (dosing 26 mg/m^2 biw) was 1 (2.7) No. of patients (%), the “SAE Ascites, Outcome” value (dosing 26 mg/m^2 biw) was “Resolved with sequelae” and the “SAE Ascites, Relationship to EP-100” value (dosing 26 mg/m^2 biw) was “Unlikely related”. For the same compound, the “SAE Fatigue, No. of patients (%)” value (dosing 26 mg/m^2 biw) was 1 (2.7) No. of patients (%), the “SAE Fatigue, Outcome” value (dosing 26 mg/m^2 biw) was “Resolved” and the “SAE Fatigue, Relationship to EP-100” value (dosing 26 mg/m^2 biw) was “Unrelated”. The “SAE Facial paresis, No. of patients (%)” value (dosing 40 mg/m^2 biw) was 1 (2.7) No. of patients (%), the “SAE Facial paresis, Outcome” value (dosing 40 mg/m^2 biw) was “Ongoing” and the “SAE Facial paresis, Relationship to EP-100” value (dosing 40 mg/m^2 biw) was “Unrelated”. The “SAE Gastrointestinal obstruction, No. of patients (%)” value (dosing 0.6, 0.9 mg/m^2 qw) was 2 (5.4) No. of patients (%), the “SAE Gastrointestinal obstruction, Outcome” value (dosing 0.6, 0.9 mg/m^2 qw) was “Resolved with sequelae” and the “SAE Gastrointestinal obstruction, Relationship to EP-100” value (dosing 0.6, 0.9 mg/m^2 qw) was “Unrelated”. For the same compound, the “SAE Pleural effusion, No. of patients (%)” value (dosing 11.7, 26 mg/m^2 biw) was 2 (5.4) No. of patients (%), the “SAE Pleural effusion, Outcome” value (dosing 11.7, 26 mg/m^2 biw) was “Resolved” and the “SAE Pleural effusion, Relationship to EP-100” value (dosing 11.7, 26 mg/m^2 biw) was “Unrelated”. The “maximum-tolerated dose (MTD)” value (highest dose evaluated 40 mg/m^2 twice weekly, IV infusion, 3 of 4 weeks per 28 day cycle) was “not reached”, the “onset of IRDRs after start of the drug infusion” value (in vivo) was at most 15 min and the “infusion site hypersensitivity, patients” value (n = 4 patients of 37) was 10.8%. For the same compound, the “pain, patients” value (one patient of 37) was 2.7%, the “AP (alkaline phosphatase), Grade 1/2” value [1] was 1 (2.7) No. of patients (%) and the “AP (alkaline phosphatase), Grade 3/4” value [1] was 0 No. of patients (%). The “AST/ALT, Grade 1/2” value [1] was 1 (2.7) No. of patients (%), the “AST/ALT, Grade 3/4” value [1] was 0 No. of patients (%) and the “Diarrhea, Grade 1/2” value [1] was 1 (2.7) No. of patients (%). The “Diarrhea, Grade 3/4” value [1] was 0 No. of patients (%), the “Fatigue, Grade 1/2” value [1] was 4 (10.8) No. of patients (%) and the “Fatigue, Grade 3/4” value [1] was 0 No. of patients (%). The “Gastroesophageal reflux, Grade 1/2” value [1] was 1 (2.7) No. of patients (%), the “Gastroesophageal reflux, Grade 3/4” value [1] was 0 No. of patients (%) and the “Hemoglobin, Grade 1/2” value [1] was 0 No. of patients (%). For the same compound, the “Hemoglobin, Grade 3/4” value [1] was 0 No. of patients (%), the “Infusion-related dermatologic reactions, Grade 1/2” value [1] was 10 (27) No. of patients (%) and the “Infusion-related dermatologic reactions, Grade 3/4” value [1] was 0 No. of patients (%). For the same compound, the “Neutrophils, Grade 1/2” value [1] was 0 No. of patients (%), the “Neutrophils, Grade 3/4” value [1] was 0 No. of patients (%) and the “Platelets, Grade 1/2” value [1] was 0 No. of patients (%). The “Platelets, Grade 3/4” value [1] was 0 No. of patients (%), the “Total bilirubin, Grade 1/2” value [1] was 0 No. of patients (%) and the “Total bilirubin, Grade 3/4” value [1] was 0 No. of patients (%). The “Vomiting, Grade 1/2” value [1] was 1 (2.7) No. of patients (%), the “Vomiting, Grade 3/4” value [1] was 0 No. of patients (%) and the “number of SAE recorded” value (treatment-emergent, 37 patients) was “Fourteen”. The “decreased appetite, patients” value (two patients of 37) was 5.4% and the “time to disappearance of all IRDR symptoms after cessation of the infusion” value (typically) was at most 30 min.

Source: PMC4000412, “Novel LHRH-receptor-targeted cytolytic peptide, EP-100: first-in-human phase I study in patients with advanced LHRH-receptor-expressing solid tumors” (Cancer Chemotherapy and Pharmacology, 2014)
